Patent US20100120740A1, “PRODRUGS OF FUSED HETEROCYCLIC INHIBITORS OF D-AMINO ACID OXIDASE” (SEPRACOR INC., priority 2008, published 2010)

Assay: Rate of hydrolysis of test compounds to 4H-furo[3,2-b]pyrrole-5-carboxylic acid in pH 7.4 and 2.0 aqueous solutions
Type: physicochemical
Conditions: HPLC; for Hydrolysis rate at pH 7.4: 0.05 M sodium phosphate buffer pH 7.4, 0.013 mg/mL, over 6 hours; for Hydrolysis rate at pH 2.0: water adjusted with phosphoric acid to pH 2.0, 0.013 mg/mL, over 2 hours
Method: 10 mM DMSO solutions of test compounds were diluted with a 0.05 M sodium phosphate buffer (pH 7.4) or water adjusted with phosphoric acid to pH 2.0, with a final concentration of 0.013 mg/mL. Samples were analyzed over either 2 or 6 hours, by HPLC. The amount of test compound and the corresponding acid were determined. The rate of conversion of the test compound was calculated based on formation of the corresponding acid and loss of parent.
The rate of hydrolysis of test compounds to 4H-furo[3,2-b]pyrrole-5-carboxylic acid was evaluated in pH 7.4 aqueous solution over 6 hours, and in pH 2.0 aqueous solution over 2 hours, according to General Procedure 15.

Row | Compound | Hydrolysis rate at pH 7.4 | Hydrolysis rate at pH 2.0
1 | Cc1oc(=O)oc1COC(=O)c1cc2occc2[nH]1 [Compound 12, (5-methyl-2-oxo-1,3-dioxol-4-yl)methyl 4H-furo[3,2-b]pyrrole-5-carboxylate] | 0.20%/hr | No hydrolysis
2 | O=C(OCCN1CCOCC1)c1cc2occc2[nH]1 [Compound 24, 2-morpholinoethyl 4H-furo[3,2-b]pyrrole-5-carboxylate] | No hydrolysis | No hydrolysis
3 | CC(OC(=O)c1cc2occc2[nH]1)OC(=O)C(C)C (centres unmarked) [Compound 31b, 1-(isobutyryloxy)ethyl 4H-furo[3,2-b]pyrrole-5-carboxylate] | 3.46%/hr | 
4 | CC(OC(=O)OC1CCCCC1)OC(=O)c1cc2occc2[nH]1 (centres unmarked) [Compound 36b, 1-(cyclohexyloxycarbonyloxy)ethyl 4H-furo[3,2-b]pyrrole-5-carboxylate] | 0.21%/hr | 

Second part, the compound after the results:

Row | Hydrolysis rate at pH 7.4 | Hydrolysis rate at pH 2.0 | Compound
5 | No hydrolysis | No hydrolysis | O=C(OCC1CCCO1)c1cc2occc2[nH]1 (centres unmarked) [Compound 11, (tetrahydrofuran-2-yl)methyl 4H-furo[3,2-b]pyrrole-5-carboxylate]
6 | No hydrolysis | No hydrolysis | CN(C)C(=O)COC(=O)c1cc2occc2[nH]1 [Compound 20, 2-(dimethylamino)-2-oxoethyl 4H-furo[3,2-b]pyrrole-5-carboxylate]
7 | No hydrolysis | No hydrolysis | O=C(OCC(=O)N1CCOCC1)c1cc2occc2[nH]1 [Compound 21a, 2-morpholino-2-oxoethyl 4H-furo[3,2-b]pyrrole-5-carboxylate]
8 | No hydrolysis | No hydrolysis | O=C(OCC(=O)N1CCC1)c1cc2occc2[nH]1 [Compound 22a, 2-(azetidin-1-yl)-2-oxoethyl 4H-furo[3,2-b]pyrrole-5-carboxylate]
